Numbered stars: 1 amine (or outer) side, 2 acyl side, 3 side chain; on linkers, the order of the positions; unused ones are H or OH. Bridge positions count the residues as written; N and C are the ends. Square brackets hold non-standard residues; d marks the D form. Peptide text beside a SMILES is read from it. * marks the point of attachment. hTyr(3S-OH,4S-OH,3'-OSO3H) = N[C@H](C(=O)O)[C@H](O)[C@@H](O)c1ccc(O)c(OS(=O)(=O)O)c1; Orn(4R-OH,5R-OH) = O=C([C@H](C[C@@H](O)[C@@H](O)N[*:3])N[*:1])[*:2]; Pro(3S-OH,4S-Me) = C[C@H]1CN[C@H](C(=O)O)[C@H]1O; X1 = CCCCCOc1ccc(-c2cc(-c3ccc(C(=O)*)cc3)no2)cc1; Gln(3R-OH) = NC(=O)C[C@@H](O)[C@H](N)C(=O)O; Hyp = O=C(O)[C@@H]1C[C@@H](O)CN1

For this assay, the system named is C. auris. Further details: species or system mice. To be noted: mouse, in vivo.

In turn, `CCCCCOc1ccc(-c2cc(-c3ccc(C(=O)N[C@H]4C[C@@H](O)[C@@H](O)NC(=O)[C@@H]5[C@@H](O)[C@@H](C)CN5C(=O)[C@H]([C@H](O)CC(N)=O)NC(=O)[C@H]([C@H](O)[C@@H](O)c5ccc(O)c(OS(=O)(=O)O)c5)NC(=O)[C@@H]5C[C@@H](O)CN5C(=O)[C@H]([C@@H](C)O)NC4=O)cc3)no2)cc1` [micafungin] (X1-[Orn(4R-OH,5R-OH)]T[Hyp][hTyr(3S-OH,4S-OH,3'-OSO3H)][Gln(3R-OH)][Pro(3S-OH,4S-Me)]; lactam 1-C) gave a survival of 20%.

For the origin of these results see patent US12324830B2 (priority 2018, dated 2025).
